Results as given in patent US20090170867A1, “TRPV1 ANTAGONISTS INCLUDING SULFONAMIDE SUBSTITUENT AND USES THEREOF” (Shionogi & Co., Ltd., priority 2007, published 2009).

Columns and labels:
human TRPV1 [1] = target: T1, human TRPV1 (Homo sapiens, UniProt Q8NER1); assay: Capsaicin-based assay, Protocol 2 (TRPV1/CHO cells, Fluo-4, FLIPR); assay type: cell-based; conditions: capsaicin 100 nM final, mean ± SEM, number of trials in parentheses, read-out: TRPV1 IC50 Potency, Human Capsaicin CHO (hCAP-CHO)
T1 construct: using primers designed surrounding the complete hTRPV1 open reading frame; expressed in transfected cells; host or cells: CHO-K1 cells stably transfected with pcDNA3.1(-)-hVR1 plasmid
T1 sequence (Q8NER1 whole entry): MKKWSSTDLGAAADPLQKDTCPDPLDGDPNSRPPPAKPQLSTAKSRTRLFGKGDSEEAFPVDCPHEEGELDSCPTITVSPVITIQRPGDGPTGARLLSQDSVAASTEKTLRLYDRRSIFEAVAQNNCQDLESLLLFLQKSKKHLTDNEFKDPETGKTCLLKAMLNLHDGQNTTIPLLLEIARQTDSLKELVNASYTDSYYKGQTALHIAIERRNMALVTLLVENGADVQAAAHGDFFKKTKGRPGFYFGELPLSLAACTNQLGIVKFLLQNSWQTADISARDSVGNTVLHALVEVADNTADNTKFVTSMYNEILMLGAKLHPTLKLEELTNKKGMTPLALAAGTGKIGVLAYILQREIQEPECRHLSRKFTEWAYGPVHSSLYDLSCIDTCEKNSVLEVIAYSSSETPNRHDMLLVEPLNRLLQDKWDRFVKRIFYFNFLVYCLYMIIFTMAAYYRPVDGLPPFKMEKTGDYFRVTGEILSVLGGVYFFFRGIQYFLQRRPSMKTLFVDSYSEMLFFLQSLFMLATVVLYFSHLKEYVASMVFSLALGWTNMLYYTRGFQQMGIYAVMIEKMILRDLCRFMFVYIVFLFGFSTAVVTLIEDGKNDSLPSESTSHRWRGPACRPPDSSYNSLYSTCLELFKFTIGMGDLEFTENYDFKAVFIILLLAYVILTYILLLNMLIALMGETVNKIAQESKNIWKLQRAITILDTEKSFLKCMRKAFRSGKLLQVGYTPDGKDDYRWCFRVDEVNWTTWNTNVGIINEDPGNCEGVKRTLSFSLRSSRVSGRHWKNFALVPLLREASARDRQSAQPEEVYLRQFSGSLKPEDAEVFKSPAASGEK
Description: The TRPV1/CHO cell line was generated as described below. […] The resulting PCR products were purified from agarose gels using Gel Band Purification Kit (GE Healthcare Bioscience) and were subcloned into pCR-Blunt vector (Invitrogen). The cloned cDNA was fully sequenced using a fluorescent dye-terminator reagent (BigDye Terminator ver3.1 Cycle Sequencing Kit, Applied Biosystems) and ABI Prism 3100 genetic analyzer (Applied Biosystems). The pCR-Blunt vector containing the hTRPV1 cDNA was subjected to restriction digestion with EcoRI. The restriction fragment was subcloned into expression vector pcDNA3.1 (-) (Invitrogen) and named pcDNA3.1 (-)-hVR1 plasmid. The sequence of the cDNA encoding TRPV1 is available at GenBank accession number AJ277028. […] The cells were transfected with the pcDNA3.1 (-)-hVR1 plasmid using FuGENE6 (Roche) according to the manufacturer's protocol. 24 hr after transfection, neomycin-resistant cells were selected using 1 mg/mL G418 (Nacalai Tesque). […] The cells expressing hTRPV1 were cultured in the growth medium supplemented with 1 mg/mL G418. […] Subsequently, the cells were loaded by incubation in 0.1 mL of wash buffer containing Fluo-4 at 3 μM final concentration. After 1 hour, the cells were washed twice with 0.2 mL wash buffer and resuspended in 0.1 mL wash buffer. The plates were then transferred to a Fluorescence Imaging Plate Reader (Molecular Devices). Fluorescence intensity was monitored for 15 seconds to establish a baseline. […] The final concentration of the compound was adjusted to range from 100 μM to 1.5625 μM. […] Data were collected over the entire time course and analyzed using Excel and the curve-fitting formula GraphPad Prism.

human TRPV1 [2] = target: T1, human TRPV1; assay: pH-based assay, Protocol 2 (TRPV1/CHO cells, Fura-2 AM, FDSS-3000, pH 5.0-5.1); assay type: cell-based; conditions: H2SO4 agonist, mean ± SEM, number of trials in parentheses, read-out: TRPV1 IC50 Potency, Human pH CHO (hpH-CHO)
Description: For Protocol 2, a Chinese Hamster Ovary cell line (CHO) that has been engineered to constitutively express human recombinant TRPV1 was used (TRPV1/CHO cells). The TRPV1/CHO cell line was generated as described below.
The resulting PCR products were purified from agarose gels using Gel Band Purification Kit (GE Healthcare Bioscience) and were subcloned into pCR-Blunt vector (Invitrogen). The cloned cDNA was fully sequenced using a fluorescent dye-terminator reagent (BigDye Terminator ver3.1 Cycle Sequencing Kit, Applied Biosystems) and ABI Prism 3100 genetic analyzer (Applied Biosystems). The pCR-Blunt vector containing the hTRPV1 cDNA was subjected to restriction digestion with EcoRI. The restriction fragment was subcloned into expression vector pcDNA3.1 (−) (Invitrogen) and named pcDNA3.1 (−)-hVR1 plasmid. The sequence of the cDNA encoding TRPV1 is available at GenBank accession number AJ277028.
CHO-K1 cells were maintained in growth medium consisting of α-MEM, 10% FBS (Hyclone), and 100 IU/mL of penicillin-100 μg/mL of streptomycin mixed solution (Nacalai Tesque, Japan) at 37° C. in an environment of humidified 95% air and 5% CO2. The cells were transfected with the pcDNA3.1 (−)-hVR1 plasmid using FuGENE6 (Roche) according to the manufacturer's protocol. 24 hr after transfection, neomycin-resistant cells were selected using 1 mg/mL G418 (Nacalai Tesque). After 2 weeks, individual colonies were picked, expanded, and screened for the expression of hTRPV1 in the capsaicin-induced Ca^2+ influx assay (see below) with a FLIPR (Molecular Devices). A clone with the largest Ca^2+ response to capsaicin was selected and re-cloned by the same procedure. The cells expressing hTRPV1 were cultured in the growth medium supplemented with 1 mg/mL G418.
TRPV1/CHO cells were seeded in the 96-well clear-bottom black-wall plate (Nunc) at densities of 1-2×10^4 cells/well and grown in 100 μL of culture medium (alpha-MEM supplemented with 10% FBS, 20 mM HEPES, 1 mg/mL geneticin and 1% antibiotic-antimycotic mixed stock solution) for 1-2 days before the experiment.
Different agonist solutions with sulfuric acid concentrations of from 15 mM to 18 mM (see FIG. 1) were prepared by diluting 1M sulfuric acid with measuring buffer. The different sulfuric acid concentrations in the agonist solutions were selected such that a 1:4 dilution would result in a final sulfuric acid concentration of between 3.0 mM to 3.6 mM, respectively, as indicated in FIG. 1.
The cells were stimulated using 3.0 mM (well number B1-6), 3.1 mM (C1-6), 3.2 mM (D1-6), 3.3 mM (E1-6), 3.4 mM (F1-6), 3.5 mM (G1-6), or 3.6 mM (H1-6) H2SO4 or pH 7.2 measuring buffer without H2SO4 (A1-6) (FIG. 2).
(1) Culture medium was removed using an 8-channel-pipette (Rainin, USA) from the 96-well plate and the wells were refilled with 100 μL of loading buffer (20 mM HEPES, 115 mM NaCl, 5.4 mM KCl, 0.8 mM MgCl2, 1.8 mM CaCl2, 13.8 mM D-glucose, 2.5 mM probenecid, pH 7.4) containing 5 μM Fura-2 AM (Dojin, Japan).
(2) The 96-well plate was incubated at 37° C. for 45 min.
(3) The loading buffer was removed from each well. The cells were subsequently washed twice with 150 μL of measuring buffer (20 mM HEPES, 115 mM NaCl, 5.4 mM KCl, 0.8 mM MgCl2, 5.0 mM CaCl2, 13.8 mM D-glucose, 0.1% BSA, pH 7.4) (no probenecid). The wells were then refilled with 80 μL of measuring buffer.
(4) After an incubation at 4° C. for 15 min, the 96-well plate was transferred to FDSS-3000 (Hamamatsu Photonics, Japan).
(5) The Fura-2 fluorescent intensity was monitored at a wavelength of 340 nm and at 380 nm, respectively, at a rate of 0.5 Hz for a total of 240 seconds.

SMILES	IC50 (human TRPV1 [1]) [nM]	IC50 (human TRPV1 [2]) [nM]
O=C(Nc1ccc(C(F)(F)F)cn1)N1CCC(F)(c2ncc([C@H](O)CO)cc2Cl)CC1 [Compound G1]	31.3 ± 8.8	16.4
O=C(Nc1ccc(Cl)c(C(F)(F)F)c1)N1CCC(F)(c2ncc([C@@H](O)CO)cc2F)CC1 [Compound G5]	400 ± 10.6	108
O=C(Nc1nc2ccc(F)cc2s1)N1CCC(F)(c2ncc([C@@H](O)CO)cc2Cl)CC1 [Compound H4]	176 ± 28.4	97 ± 9.9
CN1CCCc2ccc(NC(=O)N3CCN(c4ncc([C@H](O)CO)cc4Cl)CC3)cc21 [Compound H5]	520 ± 88.6	516 ± 99.2
CC(C)(C)c1ccc(NC(=O)N2CC=C(c3ncc([C@H](O)CO)cc3Cl)CC2)cc1 [Compound I1, (S)-3-Chloro-5-(1,2-dihydroxy-ethyl)-3′,6′-dihydro-2′H-[2,4′]bipyridinyl-1′-carboxylic acid (4-tert-butyl-phenyl)amide]	33.8 ± 9.1	1.1 ± 0.2
CC(C)Oc1ccc(NC(=O)N2CC=C(c3ncc(CO)cc3Cl)CC2)cc1C(F)(F)F [Compound I2]	122 ± 7.1	18 ± 1
Cc1ccc(NC(=O)N2CC=C(c3ncc([C@H](O)CO)cc3Cl)CC2)cc1C(F)(F)F [Compound I5]	709 ± 94.1	118 ± 27.5
O=C(Nc1ccc(C(F)(F)F)c(F)c1)N1CC=C(c2ncc([C@H](O)CO)cc2F)CC1 [Compound J1]	34.5 ± 17.5	18
O=C(Nc1ccc(C(F)(F)F)cn1)N1CC=C(c2ncc([C@H](O)CO)cc2Cl)CC1 [Compound K1]	35.1 ± 8.8	39.5
O=C(Nc1ccc(Cl)c(C(F)(F)F)c1)N1CC=C(c2ncc([C@H](O)CO)cc2F)CC1 [Compound K2]	141 ± 41.9	47.2 ± 6.7
CC(C)(C)c1ccc(NC(=O)N2CCN(c3ncc([C@H](O)CO)cc3Cl)CC2)cc1 [Compound K6, (S)—N-(4-tert-butylphenyl)-4-(3-chloro-5-(1,2-dihydroxyethyl)pyridin-2-yl)piperazine-1-carboxamide]	9.8 ± 2.3	0.8 ± 0.1
O=C(Nc1nc2ccc(F)cc2s1)N1CCC(F)(c2ncc([C@H](O)CO)cc2Cl)CC1 [Compound L1, (S)-4-(3-chloro-5-(1,2-dihydroxyethyl)pyridin-2-yl)-4-fluoro-N-(6-fluorobenzo[d]thiazol-2-yl)piperidine-1-carboxamide]	35.3 ± 12	27.5 ± 3.4
O=C(Nc1ccc(C(F)(F)F)cc1)N1CC=C(c2ncc([C@@H](O)CO)cc2Cl)CC1 [Compound L3]	37.1 ± 14.8	38.3 ± 4

The remaining lines, values ahead:

IC50 (human TRPV1 [1]) [nM]	IC50 (human TRPV1 [2]) [nM]	SMILES
153 ± 24.4	57.4 ± 9.1	O=C(Nc1ccc(C(F)(F)F)c(Cl)c1)N1CC=C(c2ncc(CO)cc2Cl)CC1 [Compound L2]
14.2 ± 1.4	5.8	O=C(Nc1ccc(OC(F)(F)F)cc1)N1CCN(c2ncc([C@H](O)CO)cc2Cl)CC1 [Compound L6, (S)-4-(3-chloro-5-(1,2-dihydroxyethyl)pyridin-2-yl)-N-(4-(trifluoromethoxy)phenyl)piperazine-1-carboxamide]
